# Like-named read-outs stand apart in the source and are kept apart here.
# Legend:
# heroin overdose = conditions: cited from earlier work
# clinical = conditions: human, plasma; for AUC(0-t): AUC0-t; for AUC(0-inf): AUC0-∞
# [1] = im, 0.4 mg, GLSM, 0.4 mg IM, no dose adjustment
# [2] = other: intranasal, 2 mg, GLSM, 2 mg IN, no dose adjustment
# [3] = other: intranasal, 2 mg, Mean, 2 mg IN
# [4] = other: intranasal, 4 mg, GLSM, 4 mg IN, no dose adjustment
# [5] = other: intranasal, 4 mg, Mean, 4 mg IN
smiles,measurement,setting,value
"C=CCN1CC[C@]23c4c5ccc(O)c4O[C@H]2C(=O)CC[C@@]3(O)[C@H]1C5 [naloxone, 17-allyl-4,5a-epoxy-3,14-dihydroxymorphinan-6-one]",rate of response within 10 minutes,"heroin overdose; 2 mg IM naloxone, 69/89",77.5%
same,rate of response within 10 minutes,"heroin overdose; 2 mg IN naloxone, 60/83",72.3%
same,patients administered supplementary naloxone,heroin overdose; IM naloxone,4.5%
same,mean response time,heroin overdose; IN naloxone,8.0 min
same,mean response time,heroin overdose; IV naloxone,7.9 min
same,AUC(0-t),clinical; [1],1.35 ng·h/mL
same,AUC(0-t),"clinical; im, 0.4 mg, Mean, 0.4 mg IM",1.38 ng·h/mL
same,AUC(0-inf),clinical; [1],1.39 ng·h/mL
same,AUC(0-inf),"clinical; im, 0.4 mg, Mean, 0.4 mg IM",1.42 ng·h/mL
same,Tmax,"clinical; im, 0.4 mg, GLSM, 0.4 mg IM",18.5 min
same,Tmax,"clinical; im, 0.4 mg, Mean, 0.4 mg IM",20.3 min
same,AUC(0-t),clinical; [2],3.28 ng·h/mL
same,AUC(0-t),clinical; [3],3.41 ng·h/mL
same,AUC(0-inf),clinical; [2],3.32 ng·h/mL
same,AUC(0-inf),clinical; [3],3.44 ng·h/mL
same,Tmax,"clinical; other: intranasal, 2 mg, GLSM, 2 mg IN",20 min
same,Tmax,clinical; [3],20 min
same,AUC(0-t),clinical; [4],5.41 ng·h/mL
same,AUC(0-t),clinical; [5],5.63 ng·h/mL
same,AUC(0-inf),clinical; [4],5.47 ng·h/mL
same,AUC(0-inf),clinical; [5],5.68 ng·h/mL
same,Tmax,"clinical; other: intranasal, 4 mg, GLSM, 4 mg IN",17.5 min
same,Tmax,clinical; [5],18.4 min
